The structures appear in SMILES notation.

These results are taken from patent publication US20240360114A1 (SIRONAX LTD., priority 2021, published 2024).

The subject of the assay is HT-1080 cells. The experiment in a line: HT-1080 cell viability assay (ferroptosis induced by RSL3, Cell Titer-Glo). It is filed as cell-based. The note with it: Homo sapiens, HT-1080, 20 h, ferroptosis inducer RSL3, 20 hours, ferroptosis inhibitory activity, Table 2. An outline of the steps: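 EC50 fitted by sigmoidal dose-response regression on luminescent viability data normalized to untreated cells. Compounds ran as a 10-point, 3-fold series from 1.1 μM alongside RSL3 for 20 hours, after overnight seeding.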
In general terms: Cellular ATP, detected with luciferase, serves as a proxy for viable cell number.
As a reminder, the EC50 is the concentration needed to bring the measured effect to its halfway point. As to `[2H]C1([2H])CC(N)CC([2H])([2H])C1([2H])Nc1ccc(C(C)(C)C)cc1` (stereo not drawn) [Compound 347, N1-(4-(tert-butyl)phenyl)cyclohexane-1,2,2,6,6-d5-1,4-diamine], the EC50 is 0.1 to 100 nM.
On to `CC(C)(C)c1ccc(NC2CCC(CNc3cn[nH]c3)CC2)cc1` (stereo not drawn) [Compound 348, N-((4-((4-(tert-butyl)phenyl)amino)cyclohexyl)methyl)-1H-pyrazol-4-amine], for which the EC50 was 0.1 to 100 nM.
`CC(C)(C)c1ccc(NC2CCC(NCC(O)CN)CC2)cc1` (stereo not drawn) [Compound 349A, 1-amino-3-((4-((4-(tert-butyl)phenyl)amino)cyclohexyl)amino)propan-2-ol]: the EC50 lay within 0.1 to 100 nM.
In the case of `CC(Nc1ccc(C(C)(C)C)cc1)[C@H]1CC[C@H](N)CC1` (stereo partly drawn) [Compound 350, N—((S)-1-((1r,4S)-4-aminocyclohexyl)ethyl)-4-(tert-butyl)aniline], the EC50 is 0.1 to 100 nM.
With `CC(C)(C)c1ccc(N[C@@H]2C[C@H](N)C[C@H](Nc3ccc(C(C)(C)C)cc3)C2)cc1` [Compound 351, (1R, 3S,5r)-N1,N3-bis(4-(tert-butyl)phenyl)cyclohexane-1,3,5-triamine], the EC50 lay in the range of 0.1 to 100 nM.
`COCCc1ccc(NC2CCC(N)CC2)cc1CCOC` (stereo not drawn) [Compound 352, N1-(3,4-bis(2-methoxyethyl)phenyl)cyclohexane-1,4-diamine] came in with an EC50 of 1000 to 10000 nM.
`CC(C)Oc1ccc(NC[C@H]2CC[C@H](N)CC2)cc1` [Compound 353, N-(((1r,4r)-4-aminocyclohexyl)methyl)-4-isopropoxyaniline] gave an EC50 of 0.1 to 100 nM.
The compound `N[C@H]1CC[C@H](Nc2ccc(N3CCC(C(F)(F)F)CC3)cc2)CC1` [Compound 354, (1r,4r)-N1-(4-(4-(trifluoromethyl)piperidin-1-yl)phenyl)cyclohexane-1,4-diamine] displayed an EC50 of 0.1 to 100 nM.
`N[C@H]1CC[C@@H](Nc2ccc(N3CCC(C(F)(F)F)CC3)cc2)CC1` [Compound 355, (1s,4s)-N1-(4-(4-(trifluoromethyl)piperidin-1-yl)phenyl)cyclohexane-1,4-diamine] came in with an EC50 of 0.1 to 100 nM.
In turn, `N[C@H]1CC[C@H](CNc2ccc(N3CCC(C(F)(F)F)CC3)cc2)CC1` [Compound 356, N-(((1r,4r)-4-aminocyclohexyl)methyl)-4-(4-(trifluoromethyl)piperidin-1-yl)aniline] returned an EC50 of 0.1 to 100 nM.
`NC1CC2(C1)CC(Nc1ccc(N3CCC(C(F)(F)F)CC3)cc1)C2` (stereo not drawn) [Compound 357, N2-(4-(4-(trifluoromethyl)piperidin-1-yl)phenyl)spiro[3.3]heptane-2,6-diamine] returned an EC50 of 0.1 to 100 nM.
Compound `CC(C)C1CCN(c2ncc(NC3CC4(CC(N)C4)C3)cn2)CC1` (stereo not drawn) [Compound 358, N2-(2-(4-isopropylpiperidin-1-yl)pyrimidin-5-yl)spiro[3.3]heptane-2,6-diamine] yielded an EC50 of 0.1 to 100 nM.
On to `NC1CC2(C1)CC(Nc1cnc(N3CCC(C(F)(F)F)CC3)nc1)C2` (stereo not drawn) [Compound 359, N2-(2-(4-(trifluoromethyl)piperidin-1-yl)pyrimidin-5-yl)spiro[3.3]heptane-2,6-diamine], for which the EC50 fell in the range of 0.1 to 100 nM.
In turn, `CC(C)C1CCN(c2ncc(NC[C@H]3CC[C@H](N)CC3)cn2)CC1` [Compound 360, N-(((1r,4r)-4-aminocyclohexyl)methyl)-2-(4-isopropylpiperidin-1-yl)pyrimidin-5-amine] came in with an EC50 of 0.1 to 100 nM.
Under `CC(C)C1CCN(c2ncc(NC[C@H]3CC[C@@H](N)CC3)cn2)CC1` [Compound 361, N-(((1s,4s)-4-aminocyclohexyl)methyl)-2-(4-isopropylpiperidin-1-yl)pyrimidin-5-amine] stands 0.1 to 100 nM; under `CC(C)C1CCN(c2ncc(NC3C[C@H]4CC(N)C[C@H]4C3)cn2)CC1` (stereo partly drawn) [Compound 362, (3aR, 6aS)-N2-(2-(4-isopropylpiperidin-1-yl)pyrimidin-5-yl) octahydropentalene-2,5-diamine], 0.1 to 100 nM; under `NC1C[C@@H]2CC(Nc3ccc(N4CCC(C(F)(F)F)CC4)cc3)C[C@@H]2C1` (stereo partly drawn) [Compound 363, (3aR, 6aS)-N2-(4-(4-(trifluoromethyl)piperidin-1-yl)phenyl) octahydropentalene-2,5-diamine], 0.1 to 100 nM.
To `NC1CC2(C1)CC(Nc1ccc(N3CCC(C(F)(F)F)CC3)cc1F)C2` (stereo not drawn) [Compound 364, N2-(2-fluoro-4-(4-(trifluoromethyl)piperidin-1-yl)phenyl)spiro[3.3]heptane-2,6-diamine] belongs 0.1 to 100 nM; to `CNC(=O)C1CCC(Nc2ccc(N3CCC(C(F)(F)F)CC3)cc2)CC1` (stereo not drawn) [Compound 365, N-methyl-4-((4-(4-(trifluoromethyl)piperidin-1-yl)phenyl)amino)cyclohexane-1-carboxamide], 0.1 to 100 nM.
To `CN(C)C(=O)C1CCC(Nc2ccc(N3CCC(C(F)(F)F)CC3)cc2)CC1` (stereo not drawn) [Compound 366, N,N-dimethyl-4-((4-(4-(trifluoromethyl)piperidin-1-yl)phenyl)amino)cyclohexane-1-carboxamide] belongs 0.1 to 100 nM.
Turning to `CC(C)C1CCN(c2ncc(NC[C@H]3CC[C@H](NC(=O)C4CNC(=O)C4)CC3)cn2)CC1` (stereo partly drawn) [Compound 367, N-((1r,4r)-4-(((2-(4-isopropylpiperidin-1-yl)pyrimidin-5-yl)amino)methyl)cyclohexyl)-5-oxopy rrolidine-3-carboxamide], the EC50 is 0.1 to 100 nM.
Under `CC(C)C1CCN(c2ncc(NC3C4CC5CC3CC(N)(C5)C4)cn2)CC1` (stereo not drawn) [Compound 368, N4-(2-(4-isopropylpiperidin-1-yl)pyrimidin-5-yl)adamantane-1,4-diamine] stands 0.1 to 100 nM; under `CCC(C)(C)c1ccc(NC2CC3(CC(N)C3)C2)cc1` (stereo not drawn) [Compound 369, N2-(4-(tert-pentyl)phenyl)spiro[3.3]heptane-2,6-diamine], 0.1 to 100 nM.
To `CC(C)C1CCN(c2ncc(NC3C4CC5CC3CC(CN)(C5)C4)cn2)CC1` (stereo not drawn) [Compound 370, N-(5-(aminomethyl)adamantan-2-yl)-2-(4-isopropylpiperidin-1-yl)pyrimidin-5-amine] belongs 0.1 to 100 nM; to `Cc1nc(N2CCC(C(F)(F)F)CC2)ccc1NC[C@H]1CC[C@H](N)CC1` [Compound 371, N-(((1r,4r)-4-aminocyclohexyl)methyl)-2-methyl-6-(4-(trifluoromethyl)piperidin-1-yl)pyridin-3-amine], 0.1 to 100 nM.
`NC1C[C@@H]2CC(Nc3ccc(N4CCC(C(F)(F)F)CC4)cc3F)C[C@@H]2C1` (stereo partly drawn) [Compound 372, (3aR, 6aS)-N2-(2-fluoro-4-(4-(trifluoromethyl)piperidin-1-yl)phenyl)octahydropentalene-2,5-di amine] registered an EC50 of 0.1 to 100 nM.
`CCNC1C[C@@H]2CC(Nc3ccc(N4CCC(C(F)(F)F)CC4)cc3F)C[C@@H]2C1` (stereo partly drawn) [Compound 373, (3aR,6aS)-N2-ethyl-N5-(2-fluoro-4-(4-(trifluoromethyl)piperidin-1-yl)phenyl)octahydropentalene-2,5-diamine]: the EC50 was in the range of 0.1 to 100 nM.
The compound `O=C1NCC(C(=O)NC2CC3(C2)CC(Nc2ccc(N4CCC(C(F)(F)F)CC4)cc2)C3)N1` (stereo not drawn) [Compound 374, 2-oxo-N-(6-((4-(4-(trifluoromethyl)piperidin-1-yl)phenyl)amino)spiro[3.3]heptan-2-yl)imidazo lidine-4-carboxamide] had an EC50 of 0.1 to 100 nM.
As for `O=C1CC(C(=O)NC2CC3(C2)CC(Nc2ccc(N4CCC(C(F)(F)F)CC4)cc2)C3)CN1` (stereo not drawn) [Compound 375], the EC50 is 0.1 to 100 nM.
Consider `Cc1nc(N2CCC(C(F)(F)F)CC2)ccc1NC1CC2(CC(N)C2)C1` (stereo not drawn) [Compound 376, N2-(2-methyl-6-(4-(trifluoromethyl)piperidin-1-yl)pyridin-3-yl) spiro[3.3]heptane-2,6-diamine], for which the EC50 was in the range of 0.1 to 100 nM.
To `Cc1nc(N2CCC(C(F)(F)F)CC2)ccc1NC1CCC(CNC(=O)C2CNC(=O)C2)CC1` (stereo not drawn) [Compound 377, N-((4-((2-methyl-6-(4-(trifluoromethyl)piperidin-1-yl)pyridin-3-yl)amino)cyclohexyl)methyl)-5-oxopyrrolidine-3-carboxamide] belongs 0.1 to 100 nM.
Consider `Cc1nc(N2CCC(C(F)(F)F)CC2)ccc1NC[C@H]1CC[C@H](NC(=O)C2CNC(=O)C2)CC1` (stereo partly drawn) [Compound 378, N-((1r,4r)-4-(((2-methyl-6-(4-(trifluoromethyl)piperidin-1-yl)pyridin-3-yl)amino)methyl)cyclohexyl)-5-oxopyrrolidine-3-carboxamide], for which the EC50 was in the range of 0.1 to 100 nM.
`Cc1cc(N2CCCCC2)ccc1NC[C@H]1CC[C@H](N)CC1` [Compound 379, N-(((1r,4r)-4-aminocyclohexyl)methyl)-2-methyl-4-(piperidin-1-yl)aniline] came in with an EC50 of 0.1 to 100 nM.
For `Cc1cc(N2CCCCC2)ccc1NC1CC2(CC(N)C2)C1` (stereo not drawn) [Compound 380, N2-(2-methyl-4-(piperidin-1-yl)phenyl)spiro[3.3]heptane-2,6-diamine], the EC50 is 0.1 to 100 nM.
Compound `Cc1cc(N2CCC(C)(C)CC2)ccc1NC1CCC(N)CC1` (stereo not drawn) [Compound 381, N1-(4-(4,4-dimethylpiperidin-1-yl)-2-methylphenyl)cyclohexane-1,4-diamine] yielded an EC50 of 0.1 to 100 nM.
On to `Cc1cc(N2CCC(C)(C)CC2)ccc1NC[C@H]1CC[C@H](N)CC1` [Compound 382, N-(((1r,4r)-4-aminocyclohexyl)methyl)-4-(4,4-dimethylpiperidin-1-yl)-2-methylaniline], for which the EC50 was 0.1 to 100 nM.
In the case of `Cc1cc(N2CCC(C(F)(F)F)CC2)ccc1NCC[C@H]1CC[C@H](N)CC1` [Compound 383, N-(2-((1r,4r)-4-aminocyclohexyl)ethyl)-2-methyl-4-(4-(trifluoromethyl)piperidin-1-yl)aniline], the EC50 was in the range of 0.1 to 100 nM.
As for `NC1CCC(Nc2cccc(N3CCC(C(F)(F)F)CC3)c2)CC1` (stereo not drawn) [Compound 384, N1-(3-(4-(trifluoromethyl)piperidin-1-yl)phenyl)cyclohexane-1,4-diamine], the EC50 fell in the range of 100 to 1000 nM.
With `CCN(CCCOC)c1ccc(NC[C@H]2CC[C@H](N)CC2)cc1` [Compound 385, N1-(((1r,4r)-4-aminocyclohexyl)methyl)-N4-ethyl-N4-(3-methoxypropyl) benzene-1,4-diamine], the EC50 was 100 to 1000 nM.
